Source: patent US20200163334A1, “INSECT REPELLENT” (FMC Corporation, priority 2016, published 2020)

Experiments:
[1] = test system: house flies (Musca domesticae); conditions: U.S. Pat. No. 6,958,146, 7,867,479 and 8,092,790; cited from earlier work
insects = conditions: Table 1 of U.S. Pat. No. 6,958,146, 7,867,479 and 8,092,790; cited from earlier work
[2] = test system: Red imported fire ant (Solenopsis invicta); assay: Fire ant repellency, baited plates near mounds (Example 6); format: in vivo; conditions: separate trial; about 100 mg per plate, within 4 feet of mounds
From the text: Formulation A was poured into a plastic spray bottle and was sprayed onto 20, eight inch paper plates, one squeeze of the pump trigger per plate. […] Ten treated plates were placed randomly on the ground on a farm in Sparks, Ga., USA and ten control (untreated) plates were placed on the ground about 3 feet from the treated plates. Ten treated plates were placed about 4 feet from active Red imported fire ant mounds and ten control plates were placed near the same mounds no closer than 3 feet from the treated plates. Each plate received approximately 15 mL of an aqueous 25% honey solution.
Fifty percent of the control plates had active fire ant feeding within 15 minutes and 100% of the control plates had active fire ant feeding within 30 minutes.

Compound: COC(=O)c1ccccc1N [methyl anthranilate]
- house fly response [1]: repelled
- insects on sticky traps (insects): quickly became covered with hundreds of insects
- deterrence of fire ant feeding [2]: did not deter fire ants from feeding
